Test system: mouse colorectal cancer cell CT26
Test: Anti-tumor effect in tumor-bearing mice, transition of tumor volume
Type: in vivo, mice (BALB/c)
Details: i.v. injection, α-mangostin 10 mg/kg, nanoparticles of average particle size 20 nm, FIG. 9
Description: The anti-tumor effect of the particles of the present invention containing α-mangostin was examined using mice (BALB/c, 7 weeks old, male) that bore the mouse colorectal cancer cell CT26. It was confirmed that the size of the tumor that the mice bore reached 100 mm^3 (7 days after), and a sample was intravenously administered (i. v. injection). The doses of α-mangostin at this time were standardized to 10 mg/kg. The transition of the tumor volume was observed after the administration.
Nanoparticles: average particle size: 20 nm (produced under the conditions of X (TX100): 0.15 mM and Y (ECH): 2.1 mL of Production Example 5) α-mangostin: Tokyo Chemical Industry Co., Ltd. Buffer solution: phosphate buffer (pH 7.5) nanoparticles containing no α-mangostin: only the nanoparticles (50 mg/mL) α-mangostin solution: α-mangostin solution (1.0 mM) containing 0.4 vol % DMSO, 2 vol % ethanol, and 2 vol TWEEN 80 (surfactant) nanoparticles containing α-mangostin: solution in which α-mangostin was contained in the nanoparticles (nanoparticle concentration: 50 mg/mL, α-mangostin concentration: 1.0 mM) Experimental data (animal experiment using mice)

## COc1c(O)cc2oc3cc(O)c(CC=C(C)C)c(O)c3c(=O)c2c1CC=C(C)C [MGS, α-mangostin]
  effect of suppressing the cancer growth (tumor volume): not observed
